# Values quoted from earlier work as cited in patent EP3731816B1, “SOLID ORAL PHARMACEUTICAL COMPOSITIONS COMPRISING APIXABAN” (Sanovel Ilac Sanayi ve Ticaret A.S., priority 2017, dated 2019).
# Assays:
# [1] = single 10 mg dose
# [2] = at 24 °C
smiles,measurement,setting,value
"COc1ccc(-n2nc(C(N)=O)c3c2C(=O)N(c2ccc(N4CCCCC4=O)cc2)CC3)cc1 [Apixaban, 1-(4-methoxyphenyl)-7-oxo-6-[4-(2-oxopiperidin-1-yl)phenyl]-4,5,6,7-tetrahydro-1H-pyrazolo[3,4-c]pyridine-3-carboxamide]",oral bioavailability,[1],about 50%
same,solubility in water,[2],28 µg/mL
